Experimental data published in patent publication US10584117B2, “1,3,4-oxadiazole amide derivative compound as histone deacetylase 6 inhibitor, and pharmaceutical composition containing same” (Chong Kun Dang Pharmaceutical Corp., priority 2015, dated 2020).

Target: T1, human recombinant HDAC6 (Homo sapiens, UniProt Q9UBN7)
T1 construct: purchased Calbiochem 382180
T1 sequence (Q9UBN7 1-1215): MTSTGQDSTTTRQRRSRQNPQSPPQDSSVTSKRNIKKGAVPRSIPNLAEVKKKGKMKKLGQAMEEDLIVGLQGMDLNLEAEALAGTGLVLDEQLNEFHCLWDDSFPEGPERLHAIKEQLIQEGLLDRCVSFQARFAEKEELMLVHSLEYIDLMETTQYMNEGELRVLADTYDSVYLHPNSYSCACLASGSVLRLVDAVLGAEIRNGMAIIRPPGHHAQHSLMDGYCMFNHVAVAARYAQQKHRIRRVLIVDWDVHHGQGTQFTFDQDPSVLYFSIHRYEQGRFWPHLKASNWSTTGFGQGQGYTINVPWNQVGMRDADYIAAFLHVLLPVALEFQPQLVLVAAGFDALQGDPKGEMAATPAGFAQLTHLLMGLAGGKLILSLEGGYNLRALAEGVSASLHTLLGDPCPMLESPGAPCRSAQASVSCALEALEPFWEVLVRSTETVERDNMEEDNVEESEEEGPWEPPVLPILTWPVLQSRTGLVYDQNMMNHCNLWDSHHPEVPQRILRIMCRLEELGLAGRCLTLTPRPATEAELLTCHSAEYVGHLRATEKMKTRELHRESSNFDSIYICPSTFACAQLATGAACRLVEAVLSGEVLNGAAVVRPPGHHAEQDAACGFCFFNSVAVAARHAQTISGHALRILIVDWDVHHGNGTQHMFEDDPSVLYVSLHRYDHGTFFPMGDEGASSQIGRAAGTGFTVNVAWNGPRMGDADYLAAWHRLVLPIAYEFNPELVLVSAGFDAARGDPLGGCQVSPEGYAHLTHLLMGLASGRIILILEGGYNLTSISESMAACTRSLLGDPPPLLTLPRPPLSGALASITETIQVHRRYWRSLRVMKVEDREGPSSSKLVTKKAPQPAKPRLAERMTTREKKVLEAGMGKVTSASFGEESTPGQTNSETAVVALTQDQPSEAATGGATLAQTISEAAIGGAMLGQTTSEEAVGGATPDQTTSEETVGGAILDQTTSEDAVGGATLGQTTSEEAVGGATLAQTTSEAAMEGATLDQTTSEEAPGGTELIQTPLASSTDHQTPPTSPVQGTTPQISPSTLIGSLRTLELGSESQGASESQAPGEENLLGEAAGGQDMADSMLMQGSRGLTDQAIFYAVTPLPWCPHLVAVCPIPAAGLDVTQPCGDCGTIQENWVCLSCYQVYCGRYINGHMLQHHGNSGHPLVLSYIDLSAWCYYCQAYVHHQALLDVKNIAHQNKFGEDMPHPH
Assay: HDAC enzyme activity inhibition assay (HDAC6, fluorimetric kit)
Type: biochemical
Details: for HDAC6 selectivity (fold): HDAC6 versus HDAC1; for IC50: same protocol as the HDAC1 test
Description: In order to examine the HDAC6 selectivity of the compounds of formula I of the present invention by HDAC1 and HDAC6 enzymatic activity inhibition assays, an experiment was performed using a conventional substance as a control. HDAC enzyme activity was measured using a HDAC Fluorimetric Drug Discovery Kit (BML-AK511, 516) from Enzo Life Science. For the HDAC1 enzyme activity test, human recombinant HDAC1 (BML-SE456) was used as an enzyme source, and Fluor de Lys®-“SIRT1 (BNL-KI177) was used as a substrate. A 5-fold dilution of the compound was seeded into a 96-well plate, and then 0.3 μg of the enzyme and 10 μM of the substrate were added to each well of the plate and allowed to react at 30° C. for 60 minutes. Then, Fluor de Lys®-Developer II (BML-KI176) was added thereto and allowed to react for 30 minutes, after which the fluorescence value (Ex 360, Em 460) was measured using a multi-plate reader (Flexstation 3, Molecular Device). The HDAC6 enzyme was tested using human recombinant HDAC6 (382180) from Calbiochem, according to the same protocol as the HDAC1 enzyme activity test method. Based on the resulting values, each IC50 value was calculated using GraphPad Prism4.0 program.

Row | HDAC6 selectivity (fold) | IC50 | Structure (SMILES)
1 | 427 fold | 234 nM | O=C(c1ccncc1)N(Cc1ccc(-c2nnc(C(F)(F)F)o2)cc1)c1ccccc1 [Compound 11022, N-phenyl-N-(4-(5-(trifluoromethyl)-1,3,4-oxadiazol-2-yl)benzyl)isonicotinamide]
2 | 524 fold | 191 nM | CC(=O)N(Cc1ccc(-c2nnc(C(F)(F)F)o2)cc1)c1ccccc1 [Compound 11105, N-phenyl-N-(4-(5-(trifluoromethyl)-1,3,4-oxadiazol-2-yl)benzyl)acetamide]
3 | 77 fold | 1300 nM | O=C(C1CCCCC1)N(Cc1ccc(-c2nnc(C(F)(F)F)o2)cc1)c1ccccc1 [Compound 11106, N-phenyl-N-(4-(5-(trifluoromethyl)-1,3,4-oxadiazol-2-yl)benzyl)cyclohexanecarboxamide]
4 | 196 fold | 509 nM | O=C(c1ccccc1)N(Cc1ccc(-c2nnc(C(F)(F)F)o2)cc1)c1ccccc1 [Compound 11107, N-phenyl-N-(4-(5-(trifluoromethyl)-1,3,4-oxadiazol-2-yl)benzyl)benzamide]
5 | 1695 fold | 59 nM | O=C(c1ccncc1)N(Cc1ccc(-c2nnc(C(F)F)o2)cc1)c1ccccc1 [Compound 11108, N-(4-(5-(difluoromethyl)-1,3,4-oxadiazol-2-yl)benzyl)-N-phenylisonicotinamide]
6 | 1818 fold | 55 nM | O=C(c1ccncc1)N(Cc1ccc(-c2nnc(C(F)(F)F)o2)cc1F)c1ccccc1 [Compound 11109, N-(2-fluoro-4-(5-(trifluoromethyl)-1,3,4-oxadiazol-2-yl)benzyl)-N-phenylisonicotinamide]
7 | 2000 fold | 50 nM | O=C(c1ccncc1)N(Cc1ccc(-c2nnc(C(F)F)o2)cc1F)c1ccccc1 [Compound 11110, N-(4-(5-(difluoromethyl)-1,3,4-oxadiazol-2-yl)-2-fluorobenzyl)-N-phenylisonicotinamide]
8 | 109 fold | 914 nM | CC(C)(C)OC(=O)N1CC(C(=O)N(Cc2ccc(-c3nnc(C(F)(F)F)o3)cc2)c2ccccc2)C1 [Compound 11134, tert-butyl 3-(phenyl(4-(5-(trifluoromethyl)-1,3,4-oxadiazol-2-yl)benzyl)carbamoyl)azetidine-1-carboxylate]
9 | 36 fold | 2750 nM | CC(C)(C)OC(=O)N1CCC(C(=O)N(Cc2ccc(-c3nnc(C(F)(F)F)o3)cc2)c2ccccc2)CC1 [Compound 11135, tert-butyl 4-(phenyl(4-(5-(trifluoromethyl)-1,3,4-oxadiazol-2-yl)benzyl)carbamoyl)piperidine-1-carboxylate]
10 | 493 fold | 203 nM | Cl.O=C(C1CNC1)N(Cc1ccc(-c2nnc(C(F)(F)F)o2)cc1)c1ccccc1 [Compound 11136, N-phenyl-N-(4-(5-(trifluoromethyl)-1,3,4-oxadiazol-2-yl)benzyl)azetidine-3-carboxamide hydrochloride]
11 | 275 fold | 364 nM | Cl.O=C(C1CCNCC1)N(Cc1ccc(-c2nnc(C(F)(F)F)o2)cc1)c1ccccc1 [Compound 11137, N-phenyl-N-(4-(5-(trifluoromethyl)-1,3,4-oxadiazol-2-yl)benzyl)piperidine-4-carboxamide hydrochloride]
12 | 351 fold | 285 nM | CN1CC(C(=O)N(Cc2ccc(-c3nnc(C(F)(F)F)o3)cc2)c2ccccc2)C1 [Compound 11138, 1-methyl-N-phenyl-N-(4-(5-(trifluoromethyl)-1,3,4-oxadiazol-2-yl)benzyl)azetidine-3-carboxamide]
13 | 775 fold | 129 nM | CCN1CC(C(=O)N(Cc2ccc(-c3nnc(C(F)(F)F)o3)cc2)c2ccccc2)C1 [Compound 11139, 1-ethyl-N-phenyl-N-(4-(5-(trifluoromethyl)-1,3,4-oxadiazol-2-yl)benzyl)azetidine-3-carboxamide]
14 | 478 fold | 209 nM | CN1CCC(C(=O)N(Cc2ccc(-c3nnc(C(F)(F)F)o3)cc2)c2ccccc2)CC1 [Compound 11140, 1-methyl-N-phenyl-N-(4-(5-(trifluoromethyl)-1,3,4-oxadiazol-2-yl)benzyl)piperidine-4-carboxamide]
15 | 306 fold | 327 nM | CCN1CCC(C(=O)N(Cc2ccc(-c3nnc(C(F)(F)F)o3)cc2)c2ccccc2)CC1 [Compound 11141, 1-ethyl-N-phenyl-N-(4-(5-(trifluoromethyl)-1,3,4-oxadiazol-2-yl)benzyl)piperidine-4-carboxamide]
16 | 303 fold | 330 nM | CC(C)N1CC(C(=O)N(Cc2ccc(-c3nnc(C(F)(F)F)o3)cc2)c2ccccc2)C1 [Compound 11142, 1-isopropyl-N-phenyl-N-(4-(5-(trifluoromethyl)-1,3,4-oxadiazol-2-yl)benzyl)azetidine-3-carboxamide]
17 | 452 fold | 221 nM | CC(C)N1CCC(C(=O)N(Cc2ccc(-c3nnc(C(F)(F)F)o3)cc2)c2ccccc2)CC1 [Compound 11143, 1-isopropyl-N-phenyl-N-(4-(5-(trifluoromethyl)-1,3,4-oxadiazol-2-yl)benzyl)piperidine-4-carboxamide]
18 | 1111 fold | 90 nM | CCC(=O)N1CC(C(=O)N(Cc2ccc(-c3nnc(C(F)(F)F)o3)cc2)c2ccccc2)C1 [Compound 11157, N-phenyl-1-propionyl-N-(4-(5-(trifluoromethyl)-1,3,4-oxadiazol-2-yl)benzyl)azetidine-3-carboxamide]
19 | 1111 fold | 90 nM | CC(C)C(=O)N1CC(C(=O)N(Cc2ccc(-c3nnc(C(F)(F)F)o3)cc2)c2ccccc2)C1 [Compound 11158, 1-isobutyryl-N-phenyl-N-(4-(5-(trifluoromethyl)-1,3,4-oxadiazol-2-yl)benzyl)azetidine-3-carboxamide]
20 | 787 fold | 127 nM | O=C(C1CN(C(=O)C(F)(F)F)C1)N(Cc1ccc(-c2nnc(C(F)(F)F)o2)cc1)c1ccccc1 [Compound 11159, N-phenyl-1-(2,2,2-trifluoroacetyl)-N-(4-(5-(trifluoromethyl)-1,3,4-oxadiazol-2-yl)benzyl)azetidine-3-carboxamide]
21 | 606 fold | 165 nM | CS(=O)(=O)N1CC(C(=O)N(Cc2ccc(-c3nnc(C(F)(F)F)o3)cc2)c2ccccc2)C1 [Compound 11160, 1-(methylsulfonyl)-N-phenyl-N-(4-(5-(trifluoromethyl)-1,3,4-oxadiazol-2-yl)benzyl)azetidine-3-carboxamide]
22 | 204 fold | 489 nM | CC(=O)N1CCC(C(=O)N(Cc2ccc(-c3nnc(C(F)(F)F)o3)cc2)c2ccccc2)CC1 [Compound 11161, 1-acetyl-N-phenyl-N-(4-(5-(trifluoromethyl)-1,3,4-oxadiazol-2-yl)benzyl)piperidine-4-carboxamide]
23 | 483 fold | 207 nM | CCC(=O)N1CCC(C(=O)N(Cc2ccc(-c3nnc(C(F)(F)F)o3)cc2)c2ccccc2)CC1 [Compound 11162, N-phenyl-1-propionyl-N-(4-(5-(trifluoromethyl)-1,3,4-oxadiazol-2-yl)benzyl)piperidine-4-carboxamide]
